Reference: patent US20250188090A1, “A METHOD FOR EXTRACTION OF ALKALOID” (priority 2022, published 2025)

Assay type: physicochemical
Details: pH 9

COC1=CC=C2[C@H]3Cc4ccc(O)c5c4[C@@]2(CCN3C)[C@H]1O5 [oripavine]
% in the solvent after a 1-stage extraction (corresponding to D): 93.3%
maximum D value: 14.5
single stage extraction efficiency for oripavine: 96%
